# Assay results published in patent US8192962B2, “Processes for detecting toxic substances” (Daikin Industries, Ltd., priority 2001, dated 2012).
# System: Metabolism protein genes
# Assay: DNA chip mRNA expression in yeast, metabolism protein genes (Table 7)
# Format: cell-based, Saccharomyces cerevisiae S288C
# How it was run: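 Chemical exposure: 2 h, log-phase S. cerevisiae S288C, YPD, 25° C., dose set to inhibit growth without death. Profiling: mRNA labeled by reverse transcription with Cy3- or Cy5-dUTP, hybridized to whole-genome array. Output: fluorescence ratio against untreated culture.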
substance,measurement,setting,value
Na2As [(1)],The level of expressed mRNA in the presence of chemical substance/The level of expressed mRNA in the absence of chemical substance,yeast gene YAL012W,1.1
same,The level of expressed mRNA in the presence of chemical substance/The level of expressed mRNA in the absence of chemical substance,yeast gene YAL038W,1.0
same,level of expressed mRNA in the presence/in the absence of chemical substance,yeast gene YBR003W,0.9
same,level of expressed mRNA in the presence/in the absence of chemical substance,yeast gene YBR011C,1.3
same,level of expressed mRNA in the presence/in the absence of chemical substance,yeast gene YBR020W,1.0
same,The level of expressed mRNA in the presence of chemical substance/The level of expressed mRNA in the absence of chemical substance,yeast gene YBR023C,0.5
same,The level of expressed mRNA in the presence of chemical substance/The level of expressed mRNA in the absence of chemical substance,yeast gene YBR029C,0.7
same,The level of expressed mRNA in the presence of chemical substance/The level of expressed mRNA in the absence of chemical substance,yeast gene YBR183W,1.8
same,The level of expressed mRNA in the presence of chemical substance/The level of expressed mRNA in the absence of chemical substance,yeast gene YBR222C,0.6
same,The level of expressed mRNA in the presence of chemical substance/The level of expressed mRNA in the absence of chemical substance,yeast gene YBR256C,3.0
same,The level of expressed mRNA in the presence of chemical substance/The level of expressed mRNA in the absence of chemical substance,yeast gene YCL009C,0.6
same,The level of expressed mRNA in the presence of chemical substance/The level of expressed mRNA in the absence of chemical substance,yeast gene YCL064C,0.6
same,level of expressed mRNA in the presence/in the absence of chemical substance,yeast gene YCR010C,1.6
same,level of expressed mRNA in the presence/in the absence of chemical substance,yeast gene YCR034W,0.8
same,The level of expressed mRNA in the presence of chemical substance/The level of expressed mRNA in the absence of chemical substance,yeast gene YCR048W,0.5
same,The level of expressed mRNA in the presence of chemical substance/The level of expressed mRNA in the absence of chemical substance,yeast gene YCR098C,1.6
same,The level of expressed mRNA in the presence of chemical substance/The level of expressed mRNA in the absence of chemical substance,yeast gene YDR019C,1.4
same,level of expressed mRNA in the presence/in the absence of chemical substance,yeast gene YDR050C,1.6
same,level of expressed mRNA in the presence/in the absence of chemical substance,yeast gene YDR073W,1.7
same,level of expressed mRNA in the presence/in the absence of chemical substance,yeast gene YDR123C,1.2
same,level of expressed mRNA in the presence/in the absence of chemical substance,yeast gene YDR178W,2.0
same,level of expressed mRNA in the presence/in the absence of chemical substance,yeast gene YDR277C,1.6
same,level of expressed mRNA in the presence/in the absence of chemical substance,yeast gene YDR284C,0.8
same,level of expressed mRNA in the presence/in the absence of chemical substance,yeast gene YDR345C,0.8
same,The level of expressed mRNA in the presence of chemical substance/The level of expressed mRNA in the absence of chemical substance,yeast gene YDR380W,0.8
same,level of expressed mRNA in the presence/in the absence of chemical substance,yeast gene YDR400W,1.0
same,level of expressed mRNA in the presence/in the absence of chemical substance,yeast gene YDR408C,1.0
same,level of expressed mRNA in the presence/in the absence of chemical substance,yeast gene YDR483W,1.1
same,The level of expressed mRNA in the presence of chemical substance/The level of expressed mRNA in the absence of chemical substance,yeast gene YDR497C,0.7
same,The level of expressed mRNA in the presence of chemical substance/The level of expressed mRNA in the absence of chemical substance,yeast gene YDR502C,1.2
same,The level of expressed mRNA in the presence of chemical substance/The level of expressed mRNA in the absence of chemical substance,yeast gene YDR516C,1.2
same,level of expressed mRNA in the presence/in the absence of chemical substance,yeast gene YEL063C,0.7
same,level of expressed mRNA in the presence/in the absence of chemical substance,yeast gene YER015W,0.7
same,The level of expressed mRNA in the presence of chemical substance/The level of expressed mRNA in the absence of chemical substance,yeast gene YER026C,0.8
same,The level of expressed mRNA in the presence of chemical substance/The level of expressed mRNA in the absence of chemical substance,yeast gene YER053C,1.6
same,The level of expressed mRNA in the presence of chemical substance/The level of expressed mRNA in the absence of chemical substance,yeast gene YER069W,1.3
same,level of expressed mRNA in the presence/in the absence of chemical substance,yeast gene YER081W,1.6
same,The level of expressed mRNA in the presence of chemical substance/The level of expressed mRNA in the absence of chemical substance,yeast gene YER096W,1.1
same,level of expressed mRNA in the presence/in the absence of chemical substance,yeast gene YER120W,0.9
same,The level of expressed mRNA in the presence of chemical substance/The level of expressed mRNA in the absence of chemical substance,yeast gene YER178W,0.8
same,level of expressed mRNA in the presence/in the absence of chemical substance,yeast gene YFL011W,1.2
same,The level of expressed mRNA in the presence of chemical substance/The level of expressed mRNA in the absence of chemical substance,yeast gene YFL014W,3.4
same,The level of expressed mRNA in the presence of chemical substance/The level of expressed mRNA in the absence of chemical substance,yeast gene YFL030W,1.6
same,The level of expressed mRNA in the presence of chemical substance/The level of expressed mRNA in the absence of chemical substance,yeast gene YFL031W,0.5
same,The level of expressed mRNA in the presence of chemical substance/The level of expressed mRNA in the absence of chemical substance,yeast gene YFL056C,19.0
same,The level of expressed mRNA in the presence of chemical substance/The level of expressed mRNA in the absence of chemical substance,yeast gene YFL057C,20.9
same,The level of expressed mRNA in the presence of chemical substance/The level of expressed mRNA in the absence of chemical substance,yeast gene YFR047C,1.3
same,level of expressed mRNA in the presence/in the absence of chemical substance,yeast gene YGL012W,1.0
same,The level of expressed mRNA in the presence of chemical substance/The level of expressed mRNA in the absence of chemical substance,yeast gene YGL022W,0.5
same,level of expressed mRNA in the presence/in the absence of chemical substance,yeast gene YGL115W,0.9
same,The level of expressed mRNA in the presence of chemical substance/The level of expressed mRNA in the absence of chemical substance,yeast gene YGL126W,0.6
same,level of expressed mRNA in the presence/in the absence of chemical substance,yeast gene YGL205W,0.9
same,The level of expressed mRNA in the presence of chemical substance/The level of expressed mRNA in the absence of chemical substance,yeast gene YGL209W,1.2
same,The level of expressed mRNA in the presence of chemical substance/The level of expressed mRNA in the absence of chemical substance,yeast gene YGL248W,1.3
same,The level of expressed mRNA in the presence of chemical substance/The level of expressed mRNA in the absence of chemical substance,yeast gene YGR037C,1.0
same,The level of expressed mRNA in the presence of chemical substance/The level of expressed mRNA in the absence of chemical substance,yeast gene YGR055W,2.5
same,level of expressed mRNA in the presence/in the absence of chemical substance,yeast gene YGR096W,1.5
same,level of expressed mRNA in the presence/in the absence of chemical substance,yeast gene YGR191W,0.8
same,The level of expressed mRNA in the presence of chemical substance/The level of expressed mRNA in the absence of chemical substance,yeast gene YGR194C,0.9
same,level of expressed mRNA in the presence/in the absence of chemical substance,yeast gene YGR204W,0.5
same,The level of expressed mRNA in the presence of chemical substance/The level of expressed mRNA in the absence of chemical substance,yeast gene YGR256W,1.2
same,The level of expressed mRNA in the presence of chemical substance/The level of expressed mRNA in the absence of chemical substance,yeast gene YGR282C,1.3
same,level of expressed mRNA in the presence/in the absence of chemical substance,yeast gene YGR288W,0.9
same,level of expressed mRNA in the presence/in the absence of chemical substance,yeast gene YHR025W,0.6
same,The level of expressed mRNA in the presence of chemical substance/The level of expressed mRNA in the absence of chemical substance,yeast gene YHR111W,1.4
same,level of expressed mRNA in the presence/in the absence of chemical substance,yeast gene YHR123W,0.7
same,The level of expressed mRNA in the presence of chemical substance/The level of expressed mRNA in the absence of chemical substance,yeast gene YHR137W,0.7
same,The level of expressed mRNA in the presence of chemical substance/The level of expressed mRNA in the absence of chemical substance,yeast gene YHR174W,1.1
same,The level of expressed mRNA in the presence of chemical substance/The level of expressed mRNA in the absence of chemical substance,yeast gene YHR176W,1.8
same,level of expressed mRNA in the presence/in the absence of chemical substance,yeast gene YHR210C,1.3
same,level of expressed mRNA in the presence/in the absence of chemical substance,yeast gene YIL006W,1.0
same,The level of expressed mRNA in the presence of chemical substance/The level of expressed mRNA in the absence of chemical substance,yeast gene YIL045W,1.7
same,The level of expressed mRNA in the presence of chemical substance/The level of expressed mRNA in the absence of chemical substance,yeast gene YIL107C,1.5
same,The level of expressed mRNA in the presence of chemical substance/The level of expressed mRNA in the absence of chemical substance,yeast gene YIL154C,0.8
same,The level of expressed mRNA in the presence of chemical substance/The level of expressed mRNA in the absence of chemical substance,yeast gene YIL155C,1.0
same,The level of expressed mRNA in the presence of chemical substance/The level of expressed mRNA in the absence of chemical substance,yeast gene YIR034C,1.2
same,The level of expressed mRNA in the presence of chemical substance/The level of expressed mRNA in the absence of chemical substance,yeast gene YIR036C,1.0
same,The level of expressed mRNA in the presence of chemical substance/The level of expressed mRNA in the absence of chemical substance,yeast gene YJL031C,1.6
same,The level of expressed mRNA in the presence of chemical substance/The level of expressed mRNA in the absence of chemical substance,yeast gene YJL068C,1.2
same,The level of expressed mRNA in the presence of chemical substance/The level of expressed mRNA in the absence of chemical substance,yeast gene YJL088W,0.9
same,The level of expressed mRNA in the presence of chemical substance/The level of expressed mRNA in the absence of chemical substance,yeast gene YJL099W,1.2
same,level of expressed mRNA in the presence/in the absence of chemical substance,yeast gene YJL121C,1.0
same,level of expressed mRNA in the presence/in the absence of chemical substance,yeast gene YJL167W,0.9
same,The level of expressed mRNA in the presence of chemical substance/The level of expressed mRNA in the absence of chemical substance,yeast gene YJL172W,0.8
same,level of expressed mRNA in the presence/in the absence of chemical substance,yeast gene YJL216C,0.8
same,The level of expressed mRNA in the presence of chemical substance/The level of expressed mRNA in the absence of chemical substance,yeast gene YJL219W,1.2
same,level of expressed mRNA in the presence/in the absence of chemical substance,yeast gene YJR077C,1.1
same,The level of expressed mRNA in the presence of chemical substance/The level of expressed mRNA in the absence of chemical substance,yeast gene YJR137C,2.7
same,level of expressed mRNA in the presence/in the absence of chemical substance,yeast gene YJR143C,0.6
same,The level of expressed mRNA in the presence of chemical substance/The level of expressed mRNA in the absence of chemical substance,yeast gene YJR148W,0.7
